Where two headings read alike, the source gives them in different places.
System: NCYC361 and other strains
Conditions: for doubling time: YPD supplemented with 100 mg/L of iron sulfate vs YPD
Procedure: Shown are the average and standard deviation of the doubling times measured for each strain in YPD and in YPD supplemented with 100 mg/L of iron sulfate. […] Data represent three biological replicates.

O.O.O.O.O.O.O.O=S(=O)([O-])[O-].[Fe+2] [iron sulfate, iron (II) sulfate heptahydrate]
growth with iron supplementation to YPD (NCYC361): partially alleviated the slow growth | doubling time (NCYC361, p<0.0008): faster | doubling time (any other strain): not significantly different
